Laboratory results from ChEMBL document CHEMBL5512655, “Discovery of indolylacryloyl-derived oxacins as novel potential broad-spectrum antibacterial candidates” (Eur J Med Chem, 2024).
Values after ≈ are worked out from the molar mass of the structure shown.

What was measured:
Assay type in all cases: functional
[1] = tested on: Escherichia coli; test: Antibacterial activity against Escherichia coli assessed as inhibition of bacterial growth measured after 24 hrs incubation
[2] = tested on: Staphylococcus aureus; test: Antibacterial activity against Staphylococcus aureus ATCC 29213 assessed as inhibition of bacterial growth measured after 24 hrs incubation
[3] = tested on: Staphylococcus aureus; test: Antibacterial activity against methicillin-resistant Staphylococcus aureus N315 assessed as inhibition of bacterial growth measured after 24 hrs incubation
[4] = tested on: Pseudomonas aeruginosa; test: Antibacterial activity against Pseudomonas aeruginosa ATCC 27853 assessed as inhibition of bacterial growth measured after 24 hrs incubation
[5] = tested on: Pseudomonas aeruginosa; test: Antibacterial activity against Pseudomonas aeruginosa assessed as inhibition of bacterial growth measured after 24 hrs incubation
[6] = tested on: Acinetobacter baumannii; test: Antibacterial activity against Acinetobacter baumannii assessed as inhibition of bacterial growth measured after 24 hrs incubation
[7] = tested on: Staphylococcus aureus; test: Antibacterial activity against Staphylococcus aureus assessed as inhibition of bacterial growth measured after 24 hrs incubation
[8] = tested on: Staphylococcus aureus; test: Antibacterial activity against Staphylococcus aureus ATCC 25923 assessed as inhibition of bacterial growth measured after 24 hrs incubation
[9] = tested on: Escherichia coli; test: Antibacterial activity against Escherichia coli ATCC 25922 assessed as inhibition of bacterial growth measured after 24 hrs incubation
[10] = tested on: Enterococcus faecalis; test: Antibacterial activity against Enterococcus faecalis assessed as inhibition of bacterial growth measured after 24 hrs incubation
[11] = tested on: Klebsiella pneumoniae; test: Antibacterial activity against Klebsiella pneumonia assessed as inhibition of bacterial growth measured after 24 hrs incubation

CCn1cc(C(=O)O)c(=O)c2cc(F)c(N3CCN(C(=O)/C(C#N)=C/c4c[nH]c5cccc(Cl)c45)CC3)cc21
MIC [1]: 4 µg/mL (≈ 7.3 µM) | MIC [2]: 2 µg/mL (≈ 3.65 µM) | MIC [3]: 8 µg/mL (≈ 14.6 µM) | MIC [4]: 1 µg/mL (≈ 1.82 µM) | MIC [5]: 32 µg/mL (≈ 58.4 µM) | MIC [6]: 2 µg/mL (≈ 3.65 µM) | MIC [7]: 1 µg/mL (≈ 1.82 µM) | MIC [8]: 4 µg/mL (≈ 7.3 µM) | MIC [9]: 2 µg/mL (≈ 3.65 µM) | MIC [10]: 8 µg/mL (≈ 14.6 µM) | MIC [11]: 0.5 µg/mL (≈ 0.912 µM)

CCn1cc(C(=O)O)c(=O)c2cc(F)c(N3CCN(C(=O)/C(C#N)=C/c4cn(CCCN5CCOCC5)c5ccccc45)CC3)cc21
MIC [1]: 1 µg/mL (≈ 1.56 µM) | MIC [2]: 0.25 µg/mL (≈ 0.39 µM) | MIC [3]: 0.25 µg/mL (≈ 0.39 µM) | MIC [4]: 1 µg/mL (≈ 1.56 µM) | MIC [5]: 0.25 µg/mL (≈ 0.39 µM) | MIC [6]: 0.5 µg/mL (≈ 0.78 µM) | MIC [7]: 2 µg/mL (≈ 3.12 µM) | MIC [8]: 0.25 µg/mL (≈ 0.39 µM) | MIC [9]: 1 µg/mL (≈ 1.56 µM) | MIC [10]: 1 µg/mL (≈ 1.56 µM) | MIC [11]: 0.25 µg/mL (≈ 0.39 µM)

CCCCCCCCn1cc(/C=C(\C#N)C(=O)N2CCN(c3cc4c(cc3F)c(=O)c(C(=O)O)cn4CC)CC2)c2ccccc21
MIC [1]: 64 µg/mL (≈ 102 µM) | MIC [2]: 1 µg/mL (≈ 1.6 µM) | MIC [3]: 0.5 µg/mL (≈ 0.799 µM) | MIC [4]: 32 µg/mL (≈ 51.1 µM) | MIC [5]: 16 µg/mL (≈ 25.6 µM) | MIC [6]: 8 µg/mL (≈ 12.8 µM) | MIC [7]: 1 µg/mL (≈ 1.6 µM) | MIC [8]: 0.25 µg/mL (≈ 0.4 µM) | MIC [9]: 4 µg/mL (≈ 6.39 µM) | MIC [10]: 1 µg/mL (≈ 1.6 µM) | MIC [11]: 2 µg/mL (≈ 3.2 µM)

CCn1cc(C(=O)O)c(=O)c2cc(F)c(N3CCN(C(=O)/C(C#N)=C/c4cn(CC(=O)O)c5ccccc45)CC3)cc21
MIC [1]: 0.5 µg/mL (≈ 0.875 µM) | MIC [2]: 1 µg/mL (≈ 1.75 µM) | MIC [3]: 0.5 µg/mL (≈ 0.875 µM) | MIC [4]: 0.5 µg/mL (≈ 0.875 µM) | MIC [5]: 0.5 µg/mL (≈ 0.875 µM) | MIC [6]: 0.25 µg/mL (≈ 0.437 µM) | MIC [7]: 2 µg/mL (≈ 3.5 µM) | MIC [8]: 0.5 µg/mL (≈ 0.875 µM) | MIC [9]: 0.5 µg/mL (≈ 0.875 µM) | MIC [10]: 0.5 µg/mL (≈ 0.875 µM) | MIC [11]: 0.25 µg/mL (≈ 0.437 µM)

CCn1cc(C(=O)O)c(=O)c2cc(F)c(N3CCN(C(=O)/C(C#N)=C/c4cn(CC(N)=O)c5ccccc45)CC3)cc21
MIC [1]: 0.5 µg/mL (≈ 0.876 µM) | MIC [2]: 16 µg/mL (≈ 28 µM) | MIC [3]: 0.25 µg/mL (≈ 0.438 µM) | MIC [4]: 1 µg/mL (≈ 1.75 µM) | MIC [5]: 8 µg/mL (≈ 14 µM) | MIC [6]: 8 µg/mL (≈ 14 µM) | MIC [7]: 32 µg/mL (≈ 56.1 µM) | MIC [8]: 8 µg/mL (≈ 14 µM) | MIC [9]: 0.25 µg/mL (≈ 0.438 µM) | MIC [10]: 16 µg/mL (≈ 28 µM) | MIC [11]: 1 µg/mL (≈ 1.75 µM)

CCOC(=O)Cn1cc(/C=C(\C#N)C(=O)N2CCN(c3cc4c(cc3F)c(=O)c(C(=O)O)cn4Cc3ccccc3)CC2)c2ccccc21
MIC [1]: 8 µg/mL (≈ 12.1 µM) | MIC [2]: 256 µg/mL (≈ 387 µM) | MIC [3]: 256 µg/mL (≈ 387 µM) | MIC [4]: 4 µg/mL (≈ 6.05 µM) | MIC [5]: 256 µg/mL (≈ 387 µM) | MIC [6]: 4 µg/mL (≈ 6.05 µM) | MIC [7]: 256 µg/mL (≈ 387 µM) | MIC [8]: 256 µg/mL (≈ 387 µM) | MIC [9]: 16 µg/mL (≈ 24.2 µM) | MIC [10]: 0.25 µg/mL (≈ 0.378 µM) | MIC [11]: 2 µg/mL (≈ 3.02 µM)

CCn1cc(C(=O)O)c(=O)c2cc(F)c(N3CCN(C(=O)/C(C#N)=C/c4c[nH]c5ccc(Cl)cc45)CC3)cc21
MIC [1]: 0.25 µg/mL (≈ 0.456 µM) | MIC [2]: 2 µg/mL (≈ 3.65 µM) | MIC [3]: 1 µg/mL (≈ 1.82 µM) | MIC [4]: 0.25 µg/mL (≈ 0.456 µM) | MIC [5]: 2 µg/mL (≈ 3.65 µM) | MIC [6]: 1 µg/mL (≈ 1.82 µM) | MIC [7]: 1 µg/mL (≈ 1.82 µM) | MIC [8]: 16 µg/mL (≈ 29.2 µM) | MIC [9]: 0.25 µg/mL (≈ 0.456 µM) | MIC [10]: 1 µg/mL (≈ 1.82 µM) | MIC [11]: 1 µg/mL (≈ 1.82 µM)

CCn1cc(C(=O)O)c(=O)c2cc(F)c(N3CCN(C(=O)/C(C#N)=C/c4cn(CC#N)c5ccccc45)CC3)cc21
MIC [1]: 2 µg/mL (≈ 3.62 µM) | MIC [2]: 1 µg/mL (≈ 1.81 µM) | MIC [3]: 2 µg/mL (≈ 3.62 µM) | MIC [4]: 0.5 µg/mL (≈ 0.905 µM) | MIC [5]: 0.5 µg/mL (≈ 0.905 µM) | MIC [6]: 1 µg/mL (≈ 1.81 µM) | MIC [7]: 4 µg/mL (≈ 7.24 µM) | MIC [8]: 0.5 µg/mL (≈ 0.905 µM) | MIC [9]: 2 µg/mL (≈ 3.62 µM) | MIC [10]: 1 µg/mL (≈ 1.81 µM) | MIC [11]: 0.5 µg/mL (≈ 0.905 µM)

CCn1cc(C(=O)O)c(=O)c2cc(F)c(N3CCN(C(=O)/C(C#N)=C/c4c[nH]c5c(C)cccc45)CC3)cc21
MIC [1]: 1 µg/mL (≈ 1.9 µM) | MIC [2]: 4 µg/mL (≈ 7.58 µM) | MIC [3]: 4 µg/mL (≈ 7.58 µM) | MIC [4]: 1 µg/mL (≈ 1.9 µM) | MIC [5]: 4 µg/mL (≈ 7.58 µM) | MIC [6]: 2 µg/mL (≈ 3.79 µM) | MIC [7]: 4 µg/mL (≈ 7.58 µM) | MIC [8]: 4 µg/mL (≈ 7.58 µM) | MIC [9]: 2 µg/mL (≈ 3.79 µM) | MIC [10]: 4 µg/mL (≈ 7.58 µM) | MIC [11]: 0.5 µg/mL (≈ 0.948 µM)

CCn1cc(C(=O)O)c(=O)c2cc(F)c(N3CCN(C(=O)/C(C#N)=C/c4cn(Cc5ccccc5)c5ccccc45)CC3)cc21
MIC [1]: 1 µg/mL (≈ 1.66 µM) | MIC [2]: 4 µg/mL (≈ 6.63 µM) | MIC [3]: 4 µg/mL (≈ 6.63 µM) | MIC [4]: 1 µg/mL (≈ 1.66 µM) | MIC [5]: 256 µg/mL (≈ 424 µM) | MIC [6]: 2 µg/mL (≈ 3.31 µM) | MIC [7]: 4 µg/mL (≈ 6.63 µM) | MIC [8]: 4 µg/mL (≈ 6.63 µM) | MIC [9]: 2 µg/mL (≈ 3.31 µM) | MIC [10]: 4 µg/mL (≈ 6.63 µM) | MIC [11]: 0.5 µg/mL (≈ 0.828 µM)

C=CCn1cc(/C=C(\C#N)C(=O)N2CCN(c3cc4c(cc3F)c(=O)c(C(=O)O)cn4CC)CC2)c2ccccc21
MIC [1]: 8 µg/mL (≈ 14.5 µM) | MIC [2]: 16 µg/mL (≈ 28.9 µM) | MIC [3]: 2 µg/mL (≈ 3.61 µM) | MIC [4]: 0.25 µg/mL (≈ 0.452 µM) | MIC [5]: 1 µg/mL (≈ 1.81 µM) | MIC [6]: 2 µg/mL (≈ 3.61 µM) | MIC [7]: 1 µg/mL (≈ 1.81 µM) | MIC [8]: 1 µg/mL (≈ 1.81 µM) | MIC [9]: 1 µg/mL (≈ 1.81 µM) | MIC [10]: 8 µg/mL (≈ 14.5 µM) | MIC [11]: 1 µg/mL (≈ 1.81 µM)

CCCn1cc(/C=C(\C#N)C(=O)N2CCN(c3cc4c(cc3F)c(=O)c(C(=O)O)cn4CC)CC2)c2ccccc21
MIC [1]: 0.5 µg/mL (≈ 0.9 µM) | MIC [2]: 1 µg/mL (≈ 1.8 µM) | MIC [3]: 2 µg/mL (≈ 3.6 µM) | MIC [4]: 1 µg/mL (≈ 1.8 µM) | MIC [5]: 0.5 µg/mL (≈ 0.9 µM) | MIC [6]: 0.25 µg/mL (≈ 0.45 µM) | MIC [7]: 0.5 µg/mL (≈ 0.9 µM) | MIC [8]: 4 µg/mL (≈ 7.2 µM) | MIC [9]: 0.25 µg/mL (≈ 0.45 µM) | MIC [10]: 1 µg/mL (≈ 1.8 µM) | MIC [11]: 0.25 µg/mL (≈ 0.45 µM)
